Reference: ChEMBL document CHEMBL1201862, “PubChem BioAssay data set” (2004)
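Assay format: 96-well plates, 48-hour exposure. Here, GI50 denotes the concentration required for 50% inhibition of growth.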 Activity calls are given as the source filed them. Rule as the data show it: active = GI50 up to about 1.1 µM and inactive = higher.

Assays:
Experiment in all cases: NCI anticancer screen, dose series, 48 h
[1] = tested on: BT-549
[2] = tested on: DU-145
[3] = tested on: Hs-578T
[4] = tested on: MDA-MB-231
[5] = tested on: MDA-MB-435
[6] = tested on: PC-3
[7] = tested on: T47D
[8] = tested on: MDA-N
[9] = tested on: RXF 631

Measured: GI50

CN(CCO)Cc1ncccc1O
inactive: [1] > 100 µM | [2] > 100 µM | [3] > 100 µM | [4] > 100 µM | [5] > 100 µM | [6] > 100 µM | [7] > 100 µM

CON(C)C(C#N)=C(C#N)C#N
inactive: [2] > 10 µM | [3] > 10 µM | [4] > 10 µM | [5] > 10 µM | [8] > 10 µM | [6] > 10 µM | [7] > 10 µM

C=CCCN1CCc2c([nH]c3ccccc23)C1C(=O)O (stereo not drawn)
inactive: [9] > 100 µM

COc1cccc(OCC(=N/NC(=O)c2ccncc2)/N=C/c2ccncc2)c1
inactive: [1] > 100 µM | [2] > 100 µM | [3] > 100 µM | [4] > 100 µM | [5] > 100 µM | [8] > 100 µM | [6] > 100 µM | [7] > 100 µM

CC1=CC(C)C(C)N(CC2=NCCN2)c2ccccc21 (stereo not drawn)
inactive: [1] > 100 µM | [2] > 69.5 µM | [3] > 74.3 µM | [4] 32.9 µM | [5] 46.5 µM | [8] 52.5 µM | [6] 46.3 µM | [7] > 57.8 µM

CC(=O)OCc1c(C)c2ccccc2n1C(C)=O
inactive: [9] 25.2 µM

COC1(OC)CCC2C1C1CCC(OC)(OC)C21 (stereo not drawn)
inactive: [9] > 50 µM

CC1CC/C(=C\c2ccc(N(C)C)cc2)C2=C1C(c1ccc(N(C)C)cc1)NC(=S)N2 (stereo not drawn)
inactive: [1] > 100 µM | [2] > 100 µM | [3] > 100 µM | [4] > 100 µM | [5] > 100 µM | [8] > 100 µM | [6] 40.3 µM | [7] > 100 µM

O=C(/C=C/c1ccc(OCc2ccccc2)cc1)NCc1ccc(C(=O)NCc2ccccc2)cc1
inactive: [1] > 100 µM | [2] > 100 µM | [3] > 100 µM | [4] > 100 µM | [5] > 100 µM | [8] > 100 µM | [6] > 100 µM | [7] > 100 µM

CN(C)C(=O)NCCN1CCCCCc2ccccc21
inactive: [2] > 100 µM | [3] > 100 µM | [4] 57.1 µM | [5] 53 µM | [8] > 100 µM | [6] > 100 µM | [7] > 100 µM

CC[C@H](O)[C@H](C)C=C1SCCCS1
inactive: [1] > 100 µM | [2] > 100 µM | [3] > 100 µM | [4] > 100 µM | [5] > 100 µM | [8] > 100 µM | [6] > 100 µM

CCOC(=O)c1cc(Br)c(-c2cc(C)no2)[nH]1
inactive: [1] 31.2 µM | [2] 20.5 µM | [4] 29.2 µM | [5] 14.3 µM | [8] 23.2 µM | [6] 28.4 µM | [7] 28.1 µM

CC(=O)c1c2c(cc3c1CC1(Cc4cc5c(cc4C1)C(=O)CCC5)C3)CCCC2 (stereo not drawn)
inactive: [2] 20.9 µM | [3] > 29.9 µM | [4] 9.25 µM | [5] 2.94 µM | [8] 2.87 µM | [6] 5.53 µM | [7] 5.38 µM

O=C(NCCCl)SCCO
inactive: [9] > 100 µM
